For assay [1], the system named is PML NBs in normal human diploid fibroblast (NHDF) cell line GM05757. Format: cell-based. An excerpt:
(§1) Cell Culture and drug treatments. Cell lines used in this study: NDHFs (GM05757, Coriell Cell Repository); human AT fibroblasts (a.k.a. AT5B1, GM05823; Coriell); human NBS-T fibroblasts (gift of J. Lukas, Danish Cancer Society, Copenhagen, Denmark); human ATLD fibroblasts (gift of Y. Shiloh, Tel Aviv University, Tel Aviv, Israel) Saos-2 (American Tissue Culture Type Collection (ATCC), HCT116 and p53 null HCT116 isogenic cells (gift of Dr. B. Vogelstein, Department of Oncology, John Hopkins University, Baltimore, Md.); ATR-DN and ATR-WT cells (gift of Dr. Paul Nghiem, University of Washington Medical School, Seattle, Wash.); Seckel syndrome cells (GM18366, Coriell); Chk2−/−MEFs and isogenic WT MEFs (gift of Dr. T. Mak, University of Toronto, Toronto); and isogenic and U2OS cells stably expressing GFP-PML IV (gift of J. Taylor, U. Wisconsin, Milwaukee, Wis.). NBST-pBabe and NBST-pBabe-NBS1 cells lines were generated by retroviral transduction of NBS-T fibroblasts using either pBabe-Puro alone or encoding full length human NBS1 (gift of J. Lukas), respectively. […] Alternately, asynchronous cell cultures were exposed to whole-cell ionizing radiation (IR)(dose range, 0-20 Gy) using a ^137Cs irradiator (MDS Nordion, Ottawa, Canada) at 1 Gy/min (on ice, aerobic conditions). […]
(§2) IF detection of proteins, live-cell imaging and fluorescence recovery after photobleaching (FRAP). […]

A further assay relates to PML protein in NHDFs. In kind it is cell-based, human. Conditions: CHX 30 min prior and maintained. An excerpt: Cell Culture and drug treatments. Cell lines used in this study: NDHFs (GM05757, Coriell Cell Repository); human AT fibroblasts (a.k.a. AT5B1, GM05823; Coriell); human NBS-T fibroblasts (gift of J. Lukas, Danish Cancer Society, Copenhagen, Denmark); human ATLD fibroblasts (gift of Y. Shiloh, Tel Aviv University, Tel Aviv, Israel) Saos-2 (American Tissue Culture Type Collection (ATCC), HCT116 and p53 null HCT116 isogenic cells (gift of Dr. B. Vogelstein, Department of Oncology, John Hopkins University, Baltimore, Md.); ATR-DN and ATR-WT cells (gift of Dr. Paul Nghiem, University of Washington Medical School, Seattle, Wash.); Seckel syndrome cells (GM18366, Coriell); Chk2−/−MEFs and isogenic WT MEFs (gift of Dr. T. Mak, University of Toronto, Toronto); and isogenic and U2OS cells stably expressing GFP-PML IV (gift of J. Taylor, U. Wisconsin, Milwaukee, Wis.). NBST-pBabe and NBST-pBabe-NBS1 cells lines were generated by retroviral transduction of NBS-T fibroblasts using either pBabe-Puro alone or encoding full length human NBS1 (gift of J. Lukas), respectively. […] Alternately, asynchronous cell cultures were exposed to whole-cell ionizing radiation (IR)(dose range, 0-20 Gy) using a ^137Cs irradiator (MDS Nordion, Ottawa, Canada) at 1 Gy/min (on ice, aerobic conditions). […] Cells were then maintained in growth medium containing kinase inhibitors for the indicated time.

For a further assay, the system named is NHDFs. Put plainly: BrdU incorporation (DNA synthesis) after VP16, NHDF. Format: cell-based, human. Conditions: NHDFs treated with CHX, 18 h post-VP16 treatment.
The test system of another assay is NHDFs (GM05757). Nature of the assay: FACS cell cycle analysis. In kind it is cell-based, human. The following applies: NHDFs by 18 h after VP16 treatment. As for the experimental part:
Cells were harvested and pelleted. The pellet was resuspended in 50 μl HBSS with 2% FBS. Cells were fixed with 1 ml ice-cold 80% ethanol for 30 minutes on ice. Cells were pelleted and resuspended in HBSS containing 0.1 mg/ml propidium iodide (Sigma) and 0.6% NP-40 to final concentration of 2×10^6 cells/ml. An equal volume of 2 mg/ml RNase in HBSS was added and incubated at room temperature in the dark for 30 minutes. This solution was then filtered through a 40 μm nylon mesh (BD Biosciences) and keep on ice until analysis. Cells were analyzed on a FACscan flowcytometer (BD Biosciences). Data analysis was performed using FlowJo 6.0 (Tree Star).

Assay [2] concerns PML NBs in NHDFs (GM05757). Nature of the assay: Correlative LM/ESI ultrastructure of PML NBs. In kind it is cell-based, human. Conditions: 20 μM VP16 for 30 min, NHDF. As for the experimental part: Correlative Microscopy and Electron Spectroscopic Imaging—Samples were prepared and sectioned for correlative microscopy and electron spectroscopic imaging (ESI) as previously described (Eskiw et al., 2003; Dellaire et al., 2004). Nitrogen and phosphorus maps were collected using an FEI Technai 20 transmission electron microscope fitted with an electron imaging spectrometer (Gatan). Immuno-gold labeling was accomplished using a secondary antibody conjugated to Ultra-small nanogold (donkey anti-rabbit, EMS, Cat. 25100).

Assay [3] relates to PML NBs in NHDF cell line GM05757. Put plainly: Kinase inhibitor effect on the PML NB number increase in response to DSBs. In kind it is cell-based, human.
Source text: as §1, §2

Where two headings read alike, the source gives them in different places.

As for `COc1cccc2c1C(=O)c1c(O)c3c(c(O)c1C2=O)C[C@@](O)(C(=O)CO)C[C@@H]3O[C@H]1C[C@H](N)[C@H](O)[C@H](C)O1` [doxorubicin], the “time after treatment at which γ-H2AX signal and PML NB number peaked” value in assay [1] (20 μM VP16 or 1.5 μM doxorubicin for 30 min, NHDF GM05757) turned out to be 3 h.
With `C[C@@H]1C[C@@H]([C@H](O)CC2CC(=O)NC(=O)C2)C(=O)[C@@H](C)C1` [CHX, cycloheximide], the “PML NB number initially, compared to untreated cells” value in assay [1] (CHX-treated NHDFs, VP16 treatment) is listed as “higher number of PML NBs initially”. The “effect on DNA damage-dependent increase in PML protein levels” value with PML protein in NHDFs (4 h after VP16) was “little effect”; in the assay on PML protein in NHDFs (12 h after VP16), “inhibited”. The BrdU incorporation entry in the assay with NHDFs is reported as “no BrdU incorporation”.
As for `COc1cc([C@@H]2c3cc4c(cc3[C@@H](O[C@@H]3O[C@@H]5CO[C@@H](C)O[C@H]5[C@H](O)[C@H]3O)[C@H]3COC(=O)[C@H]23)OCO4)cc(OC)c1O` [VP16, etoposide], in the assay on NHDFs (GM05757), the cell cycle distribution entry was “marked accumulation in G1 and G2 phase”. In assay [2], the “PML NB ultrastructure (symmetry, chromatin contacts)” value is “lose their radial symmetry and make fewer contacts with the surrounding chromatin fibres”.
Turning to `NC(=O)c1ccc2nc(-c3ccc(Oc4ccc(Cl)cc4)cc3)[nH]c2c1` [Chk2 kinase inhibitor II], in assay [3] (10 μM Chk2 inhibitor II or 20 μM wortmannin pre-treatment, versus VP16 without inhibitor), the “effect on PML NB number at 3 h following VP16 treatment” value is given as “significantly reduce”. Also, in assay [3] (10 μM inhibitor pre-treatment, 30 min time point), the “effect on the initial increase in PML NBs in response to VP16” value is recorded as “did not affect”.

Values taken from patent US20100248226A1, “METHODS FOR MEASURING CELL RESPONSE TO DNA DAMAGING AGENTS USING PROMYELOCYTIC LEUKEMIA PROTEIN NUCLEAR BODIES” (priority 2006, published 2010).
